“Also recorded” adds a separate entry of the source. Bridges are numbered along the chain shown (N, C = ends). Where no end group is shown, it is not given here.
What was measured:
A549 cells = assay: Confocal imaging of LAT9991F-PAL binding and LANCL1 co-localization, with siRNA knockdown and competitors, in A549 cells; assay type: cell-based; conditions: SiLANCL1 A549 cells; competitor 25 μM
Procedure: A photoactivatable analog of LAT8881 (LAT9991F (SEQ ID NO:13)-PAL), was used to conduct the experiments. A549 or NCI-H358 cells were treated with LAT9991F-PAL at 2.5 μM during 30 minutes. Fluorescent signal was recorded after that LAT9991F-PAL was immobilized on its target(s) site by UV-crosslinking and the LAT9991F-PAL-target complexes were labeled with the green-fluorescent Alexa Fluor 488 alkyne dye by click-chemistry. Control cells were treated with the vehicle, dimethyl sulfoxide (DMSO), and with LAT9991F-PAL in combination with a large excess of the parent drug LAT8881 or other competitors, GSH, NSC61610 or ABA to evaluate, respectively, the non-specific fluorescent background and the specificity of the staining. For colocalization experiments, subsequently, immunofluorescence staining with an anti-LANCL1 or LANCL2 antibodies and an Alexa 568 (red) conjugated secondary antibody was performed. Images stacks of cells labeled with probes were collected and evaluated for the degree of colocalization of LAT9991F-PAL-target complexes and LANCL1 or LANCL2 using either the Measure Colocalization plugin in Metamorph or the JACoP plugin in ImageJ).
A549 or NCI-H358 cells (ATCC CCL-185 and ATCC CRL-5807, respectively) were cultured in appropriate medium containing 10% heat-inactivated FBS (Dutscher, #SV30160-036), 1% penicillin/streptomycin (Gibco, #15140-122) and maintained in a humidified 37° C. incubator with 5% CO2.
LAT9991F-PAL was dissolved in DMSO to make a 10 mM stock solution. Intermediate solutions at 25 μM and 2.5 μM were made in the culture medium from the 10 mM stock solutions of LAT8881 and LAT9991F-PAL, respectively. A two-fold dilution into PBS of each intermediate solution was used for cell treatment. A stock solution at 10 mM was prepared for the other competitors as GSH, NSC61610 and ABA. A final concentration at 25 μM was used for the assay.
A549 or NCI-H358 cells were seeded onto ibidiTreat Polymer Coverslips (Ibidi, #80826) at 2.5×10^5 cells/cm^2 in 200 μl of complete medium. After 24 hours, the medium was removed and cells were washed with PBS (Gibco, #10010049) and then pre-treated with the Taxol at 1 μM for 3 hours or with H2O2 25 μM for 2 hours. Cells were washed twice with PBS. Induced stress cells or control cells were then exposed to LAT9991F-PAL (2.5 μM) in PBS for 30 minutes, in the presence or absence of LAT8881 (25 μM), or the other compounds used as a competitor, and pre-incubated 10 minutes. After treatment, cells were washed with cold PBS and UV-irradiated (365 nm) in PBS for 20 min. After fixation with 4% paraformaldehyde and permeabilization (0.5% Triton/PBS) (Image-iT™ Fixation/Permeabilization Kit, ThermoFisher, #R37602), the bioorthogonal reaction with Alexa Fluor 488 Alkyne (1 μM) (ThermoFisher, #A10267) was performed at 25° C. using the Click-iT™ Cell Reaction Buffer Kit (ThermoFisher, #C10269) according to the manufacturer protocol. After click reaction, cells were washed twice with PBS, blocked with 3% BSA in PBS for 1 hour and stained with Hoechst 33342 dye (ThermoFisher, #H1399).
For colocalization experiments, cells were further incubated overnight at 4° C. with a mouse anti-LanCL1 antibody (Invitrogen, PAS-57-107) (dilution 1:1000) or LanCL2 (Atlas Antibodies HPA019711) (dilution 1:1000) in 3% BSA in PBS, washed twice with PBS, and then incubated respectively with a goat anti-mouse […] (Molecular Probes, #A21467) (dilution 1:800) for 1 h in 3% BSA in PBS. After three further washing steps with PBS, cells were embedded in Ibidi Mounting Medium (ibidi, #50001). The specimens were kept at 4° C. in the dark until analysis.
Images were acquired on an Axiovert200M (Zeiss) microscope using a CSU-W1 Yokogawa confocal unit. This microscope is equipped with a plan Apochromat X40 dry objective numerical aperture (NA) 0.95 and a Neofluar X100 oil immersion objective NA 1.45. Images were capture with an EMCCD camera (Prior, ProEM 1024×1024).

DRG neurons = assay: Confocal microscopy of PAL probe binding in DRG cell cultures, spinal nerve ligation model; assay type: cell-based, Sprague Dawley rats
Excerpt: LAT9991-PAL was used in conjunction with confocal microscopy to visualise the location of potential target(s), noting that analgesic agents can have activity at several sites, either on central or peripheral neurons, or on glial or inflammatory cells that are in proximity to neurons. To identify the cell types to which LAT9991-PAL binds, 3-day cell cultures of DRG from neuropathic or control sites were taken from animals with neuropathy due to spinal nerve ligation. Briefly, L5 and L6 spinal nerves of male Sprague Dawley rats were ligated to create a robust and long-lasting mechanical allodynia of the injured hind paw. Presence of neuropathic pain was confirmed 2 weeks post-spinal nerve ligation surgeries (day 14) using von Frey (VF) filaments (up-and-down method) applied on ipsilateral (injured) and contralateral (non-injured) paw). Live DRG cells were dissected out as described previously and incubated with LAT9991-PAL for 1 hour prior to UV irradiation to fix the binding in situ. […] As a specificity control, the binding of LAT9991-PAL to the neuropathic DRG was blocked in the presence of an excess amount of unlabeled LAT9991 peptide.

[1] = tested on: tissue homogenates of nerve from neuropathic animals; assay: PAL cross-linking to nerve tissue homogenates and gel separation; assay type: binding
Excerpt: Using a ligand driven approach, the present inventors utilized the photo-activatable cross-linking PAL from Evotec A.G. (Photo-Activated Labelling) technology that derivatizes the active cyclic peptides to allow UV-induced cross-linking to binding targets (described herein as peptide/SEQ ID NO:X-PAL). This allows subsequent detection in cells, gels of tissue isolates or in pull-down of the peptide/target complex for sequencing by mass spectroscopy (PALMS).
LAT9991-PAL was cross-linked to tissue homogenates of nerve from neuropathic animals.

Substance | Competition of LAT9991F-PAL binding by excess competitor (A549 cells) | Subcellular location of the target stained by PAL probe (DRG neurons; high-powered imaging, neurons from neuropathic animals (FIG. 2)) | Localisation of PAL probe in DRG cell cultures (DRG neurons; neuropathic vs unaffected DRG, 1 hour incubation before UV irradiation) | Cross-linking of PAL probe to tissue homogenates of nerve from neuropathic animals [1] | Molecular weight ranges of targets stained after gel separation ([1]; FIG. 3 legend, LAT9991-PAL 5 μM) | Molecular weight ranges of targets stained after gel separation ([1]; PAL probe cross-linked to nerve homogenates)
YLRIVQCRSVEGSCGF [LAT8881, a cyclic peptide fragment of human growth hormone] | partially competed off |  |  |  |  | 
LAT9991-PAL: cyclic peptide of SEQ ID NO:12 (LAT9991) conjugated to the PAL (Photo-Activated Labelling) grouping (CRSVEGSCG; disulfide 1-8 (inferred); also: PAL group on N-terminal Cys-Arg part) |  | expressed just inside the neuronal cell membrane, and with punctate staining in the cytoplasm | localised only in neurons from neuropathic DRG and not from unaffected DRG | cross-linked; also recorded: shown to cross-link | 12-15 kDa, 37 kDa and 40-50 kDa | ˜12-15 kD, ˜37 kD and ˜50 kD

From patent US20230064978A1, “CYCLIC PEPTIDE RECEPTOR LANTHIONINE SYNTHETASE C-LIKE PROTEIN (LANCL) AND USES THEREOF” (LATERAL IP PTY LTD, priority 2019, published 2023)
